“And” between values parts separate entries of the source, which are not always exact repeats. Identical values can stand only once. “Also recorded” adds a separate entry of the source.
Experiments:
[1] = solvents named in the value; cited from earlier work
cancer cell models = conditions: literature reports; cited from earlier work
[2] = tested on: human acute leukemia cell line (HL-60); test: CellTiter-Glo cell viability assay, single agent growth inhibition; assay type: cell-based; conditions: HL-60, 72 hours treatment
Protocol: Cell viability in the presence of varying concentrations of the benzamide compounds at different time points was used to assess cytotoxicity and the effect of the compounds on cell proliferation.
Cell Viability Assay-Cell viability was measured by the CellTiter-Glo® cell viability assay Promega (Madison, Wis.). The CellTiter-Glo® Luminescent Cell Viability Assay is a homogeneous method to determine the number of viable cells in culture based on quantitation of the ATP present, which signals the presence of metabolically active cells. Following treatment, CellTiter-Glo® is added to treatment wells and incubated at 37° C. luminescence values were measured at using a Molecular Devices Spectramax microplate reader.
Single Agent Studies—Cells were grown to 70% confluency, trypsinized, counted, and seeded in 96 well flat-bottom plates at a final concentration of 2.5×10^3-5×10^3 cells/well (Day 0). Cells were allowed to incubate in growth media for 24 hours to allow for maximum adhesion. Treatment with the test agents or standard agents began on Day 1 and continued for 72 hours. At the 72-hour time point, treatment containing media was removed. Viable cell numbers are quantified by the CellTiter-Glo® cell viability assay as described above. Experiments were run with triplicate concentrations to determine growth inhibitory activity. Results from these studies were used to calculate an IC50 value (concentration of drug that inhibits cell growth by 50 percent of control) for each compound.
Data Collection—For single agent and combination studies, data from each experiment was collected and expressed as % Cell Growth using the following calculation: % Cell Growth=(ftest/fvehicle)×100
Where ftest is the luminescence of the tested sample, and fvehicle is the luminescence of the vehicle in which the drug is dissolved. Dose response graphs and IC50 values were generated using Prism 6 software (GraphPad).

CT-26 murine colon tumor = test: CT-26 tumor volume growth, ID #24 and anti-4-1BB; assay type: in vivo; conditions: Anti-m4-1BB 0.05 mg/kg IP QDx1, in mm³
[3] = tested on: intratumoral CD8 T-cells and natural killer cells; test: Intratumoral immune cells in tumor bearing mice; assay type: in vivo

## Nc1ncn([C@@H]2O[C@H](CO)[C@@H](O)[C@H]2O)c(=O)n1 [Azacitidine, 4-amino-1-β-D-ribofuranozyl-s-triazin-2(1H)-one]
[1]
  solubility: insoluble in acetone, ethanol and methyl ketone; also recorded: slightly soluble in ethanol/water (50/50), propylene glycol and polyethylene glycol; also recorded: sparingly soluble in water, water-saturated octanol, 5% dextrose in water, N-methyl-2-pyrrolidone, normal saline and 5% Tween 80 in water; also recorded: soluble in dimethylsulfoxide (DMSO)

## Nc1ncn([C@H]2C[C@H](O)[C@@H](CO)O2)c(=O)n1 [Decitabine, 4-amino-1-(2-deoxy-β-D-erythro-pentofuranosyl)-1,3,5-triazin-2(1H)one]
[1]
  solubility: slightly soluble in ethanol/water (50/50), methanol/water (50/50) and methanol; also recorded: sparingly soluble in water; also recorded: soluble in dimethylsulfoxide (DMSO)
Cancer cell models
  effects on cancer cells: suppression of growth and apoptosis; also recorded: causes G2 arrest, reduces clonogenic survival, and inhibits growth in cells

## O=C(NO)c1ccc(Nc2nc3ccccc3n2CC2CCCCC2)cc1 [ID #24, 4-(1-(cyclohexylmethyl)-1H-benzo[d]imidazol-2-ylamino)-N-hydroxybenzamide]
[2]
  IC50: 1.15 µM
CT-26 murine colon tumor; Day 1, Example #24 150.00 mg/kg PO QD to end
  tumor volume, individual animal (ID 001-005): 85
CT-26 murine colon tumor; Day 5, Example #24 150.00 mg/kg PO QD to end
  tumor volume, individual animal (ID 001-005): 73
CT-26 murine colon tumor; Day 8, Example #24 150.00 mg/kg PO QD to end
  tumor volume, individual animal (ID 001-005): 65
CT-26 murine colon tumor; Day 9, Example #24 150.00 mg/kg PO QD to end
  tumor volume, individual animal (ID 001-005): 65
CT-26 murine colon tumor; Day 12, Example #24 150.00 mg/kg PO QD to end
  tumor volume, individual animal (ID 001-005): 68 and 590
CT-26 murine colon tumor; Day 14, Example #24 150.00 mg/kg PO QD to end
  tumor volume, individual animal (ID 001-005): 67
[3]
  numbers of intratumoral CD8 T-cells and natural killer cells: increased numbers of intratumoral CD8 T-cells and natural killer cells

## O=C(NO)c1ccc(Nc2nc3ccccc3n2C2CCCCC2)cc1 [ID #25, 4-(1-cyclohexyl-1H-benzo[d]imidazol-2-ylamino)-N-hydroxybenzamide]
[2]
  IC50: 3.9 µM

## O=C(NO)c1ccc(Nc2nc3ccccc3n2C2CCCCCC2)cc1 [ID #26, 4-(1-cycloheptyl-1H-benzo[d]imidazol-2-ylamino)-N-hydroxybenzamide]
[2]
  IC50: 0.66 µM

From patent publication US10780080B2, “Benzamide and active compound compositions and methods of use” (TRANSLATIONAL DRUG DEVELOPMENT, LLC, priority 2016, dated 2020)
